Laboratory results taken from patent publication US9980943B2, “Methods of treating muscular dystrophy” (BOARD OF REGENTS OF THE NEVADA SYSTEM OF HIGHER EDUCATION, …, priority 2013, dated 2018).

Legend:
Assay type in all cases: cell-based, mouse
[1] = tested on: α7 integrin (LacZ reporter in α7βgal+/− myoblasts); experiment: Myoblast α7+/LacZ integrin FDG assay (Burkin assay in myoblasts, 96-well); details: α7+/LacZ myoblasts, 96-well; for fold induction at 0.5 µM / fold induction at 1 µM / fold induction at 5 µM / fold induction at 10 µM / fold induction at 20 µM / fold induction at 40 µM: Mus musculus, Myoblast, 48 h, read-out: Burkin Assay in Myoblasts, value relative to DMSO
[2] = tested on: α7 integrin (LacZ reporter in α7+/LacZ myotubes); experiment: Myotube α7 integrin FDG assay (Burkin assay in myotubes, 96-well); details: myotubes; for fold induction at 0.5 µM / fold induction at 1 µM / fold induction at 5 µM / fold induction at 10 µM / fold induction at 20 µM / fold induction at 40 µM: Mus musculus, Myotube, read-out: Burkin Assay in Myotubes (signal relative to DMSO)
[3] = tested on: β-galactosidase in CMV-LacZ C2C12 myotubes; experiment: CMV-LacZ secondary screen in C2C12 myotubes (β-Gal stabilizing assay); details: for CMV-LACZ in Myotubes (β-galactosidase activity relative to DMSO): CMV-LacZ C2C12 myotubes, 96-well format; for CMV-LACZ in Myotubes, signal relative to DMSO: C2C12 CMV-LacZ myotubes, fold relative to DMSO
Procedure, shortened: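 First, C2C12 myoblasts were transfected with a linearized CMV-LACZ vector and clonal lines selected by FDG β-gal assay. Then cells were exposed to compounds at 0.5, 1, 5, 10, 20 and 40 μM in 96-well format, two replicates each, and β-gal measured.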

Structure (SMILES)	CMV-LACZ in Myotubes (β-galactosidase activity relative to DMSO) ([3]; 5 uM)	CMV-LACZ in Myotubes (β-galactosidase activity relative to DMSO) ([3]; 10 uM)	CMV-LACZ in Myotubes (β-galactosidase activity relative to DMSO) ([3]; 20 uM)	CMV-LACZ in Myotubes (β-galactosidase activity relative to DMSO) ([3]; 40 uM)	Burkin Assay in Myoblasts, value relative to DMSO ([1]; 0.5 uM)	Burkin Assay in Myoblasts, value relative to DMSO ([1]; 1 uM)	Burkin Assay in Myoblasts, value relative to DMSO ([1]; 5 uM)	Burkin Assay in Myoblasts, value relative to DMSO ([1]; 10 uM)	Burkin Assay in Myoblasts, value relative to DMSO ([1]; 20 uM)	Burkin Assay in Myoblasts, value relative to DMSO ([1]; 40 uM)	Burkin Assay in Myotubes (signal relative to DMSO) ([2]; 0.5 uM)	Burkin Assay in Myotubes (signal relative to DMSO) ([2]; 1 uM)	Burkin Assay in Myotubes (signal relative to DMSO) ([2]; 5 uM)	Burkin Assay in Myotubes (signal relative to DMSO) ([2]; 10 uM)	Burkin Assay in Myotubes (signal relative to DMSO) ([2]; 20 uM)	Burkin Assay in Myotubes (signal relative to DMSO) ([2]; 40 uM)	further results
CCOc1ccc(NC(=O)CN2C(=O)NC(CCSC)C2=O)cc1 (stereo not shown) [MLS000772430-01]	0.8183	0.9094	0.8956	1.037													fold induction at 0.5 µM ([1]; 0.5 uM): 0.973; fold induction at 1 µM ([1]; 1 uM): 0.936; fold induction at 5 µM ([1]; 5 uM): 1.01; fold induction at 10 µM ([1]; 10 uM): 1.05; fold induction at 20 µM ([1]; 20 uM): 0.881; fold induction at 40 µM ([1]; 40 uM): 0.896; fold induction at 0.5 µM ([2]; 0.5 uM): 1.03; fold induction at 1 µM ([2]; 1 uM): 1.28; fold induction at 5 µM ([2]; 5 uM): 1.04; fold induction at 10 µM ([2]; 10 uM): 1.25; fold induction at 20 µM ([2]; 20 uM): 1.26; fold induction at 40 µM ([2]; 40 uM): 1.05
Cc1ccc(-c2csc(Nc3ccc(C(=O)O)cc3)[n+]2Cc2ccccc2)cc1 [MLS000374261-01]	0.8246	0.8319	0.448	0.5036	0.7676	0.7758	0.7248	0.7138	0.8376	0.8321	0.8144	0.8386	1.131	0.9288	0.423	0.449	
O=[N+]([O-])c1cccc(S(=O)(=O)N2CCN(S(=O)(=O)N3CCOCC3)CC2)c1 [MLS000912614-01]					0.9551	1.088	0.9534	0.94	0.7382	0.7798	1.042	1.024	1.103	1.055	0.775	0.7855	CMV-LACZ in Myotubes, signal relative to DMSO ([3]; 5 uM): 1.018; CMV-LACZ in Myotubes, signal relative to DMSO ([3]; 10 uM): 1.166; CMV-LACZ in Myotubes, signal relative to DMSO ([3]; 20 uM): 0.97; CMV-LACZ in Myotubes, signal relative to DMSO ([3]; 40 uM): 1.012
Cc1ccc(-c2onc3ccc(C(=O)/C=C/N(C)C)cc23)cc1 [MLS001166156-01]	0.8707	0.9198	0.7796	0.5227	0.8005	0.9085	0.7543	0.7601	0.7571	0.3481	1.001	0.8521	1.07	0.7592	0.8218	0.4461	
COc1ccc(-c2csc3ncnc(N4CCN(c5ccccc5[N+](=O)[O-])CC4)c23)cc1 [MLS001149811-01]	0.9566	1.048	1.122	1.65	0.6497	0.8888	1.01	1.022	1	0.6172	0.957	0.9993	0.9434	0.9086	0.8456	0.5432	
COCCn1c(=N)c(S(=O)(=O)c2ccc(Br)cc2)cc2c(=O)n3ccccc3nc21 [MLS001141113-01]	1.134	1.383	0.9823	1.913													fold induction at 0.5 µM ([1]; 0.5 uM): 1.23; fold induction at 1 µM ([1]; 1 uM): 1.06; fold induction at 5 µM ([1]; 5 uM): 1.08; fold induction at 10 µM ([1]; 10 uM): 1.07; fold induction at 20 µM ([1]; 20 uM): 0.915; fold induction at 40 µM ([1]; 40 uM): 0.56; fold induction at 0.5 µM ([2]; 0.5 uM): 1.04; fold induction at 1 µM ([2]; 1 uM): 0.854; fold induction at 5 µM ([2]; 5 uM): 1.05; fold induction at 10 µM ([2]; 10 uM): 0.929; fold induction at 20 µM ([2]; 20 uM): 0.887; fold induction at 40 µM ([2]; 40 uM): 0.812
COc1ccc(S(=O)(=O)N(NC2=NS(=O)(=O)c3ccccc32)C(=O)C(C)C)cc1 [MLS000682883-01]																	Burkin Assay in Myoblasts, signal relative to DMSO ([1]; 0.5 uM): 0.9476; Burkin Assay in Myoblasts, signal relative to DMSO ([1]; 1 uM): 0.9633; Burkin Assay in Myoblasts, signal relative to DMSO ([1]; 5 uM): 1.011; Burkin Assay in Myoblasts, signal relative to DMSO ([1]; 10 uM): 0.9192; Burkin Assay in Myoblasts, signal relative to DMSO ([1]; 20 uM): 0.8269; Burkin Assay in Myoblasts, signal relative to DMSO ([1]; 40 uM): 0.7379; Burkin Assay in Myotubes, α7 integrin LacZ reporter signal relative to DMSO ([2]; 0.5 uM): 0.8116; Burkin Assay in Myotubes, α7 integrin LacZ reporter signal relative to DMSO ([2]; 1 uM): 1.095; Burkin Assay in Myotubes, α7 integrin LacZ reporter signal relative to DMSO ([2]; 5 uM): 0.9936; Burkin Assay in Myotubes, α7 integrin LacZ reporter signal relative to DMSO ([2]; 10 uM): 1.01; Burkin Assay in Myotubes, α7 integrin LacZ reporter signal relative to DMSO ([2]; 20 uM): 1.102; Burkin Assay in Myotubes, α7 integrin LacZ reporter signal relative to DMSO ([2]; 40 uM): 1.094; CMV-LACZ in Myotubes, signal relative to DMSO ([3]; 5 uM): 0.9333; CMV-LACZ in Myotubes, signal relative to DMSO ([3]; 10 uM): 1.084; CMV-LACZ in Myotubes, signal relative to DMSO ([3]; 20 uM): 1.087; CMV-LACZ in Myotubes, signal relative to DMSO ([3]; 40 uM): 0.8967
